Reference: paper PMC9851200, “Multiparameter phenotypic screening for endogenous TFEB and TFE3 translocation identifies novel chemical series modulating lysosome function” (Autophagy, 2022)

Tests used:
Assay type in all cases: binding
[1] = target: kinases (KINOMEscan panel) (Homo sapiens, UniProt P21127); conditions: CDK11B; NEW KINOMEscan
[2] = target: kinases (KINOMEscan panel) (Homo sapiens, UniProt P00533, G719S); conditions: EGFR(G719S); NEW KINOMEscan
[3] = target: T1, kinases (KINOMEscan panel) (Homo sapiens, UniProt Q8TD19); conditions: NEK9; NEW KINOMEscan
T1 sequence (Q8TD19 1-979): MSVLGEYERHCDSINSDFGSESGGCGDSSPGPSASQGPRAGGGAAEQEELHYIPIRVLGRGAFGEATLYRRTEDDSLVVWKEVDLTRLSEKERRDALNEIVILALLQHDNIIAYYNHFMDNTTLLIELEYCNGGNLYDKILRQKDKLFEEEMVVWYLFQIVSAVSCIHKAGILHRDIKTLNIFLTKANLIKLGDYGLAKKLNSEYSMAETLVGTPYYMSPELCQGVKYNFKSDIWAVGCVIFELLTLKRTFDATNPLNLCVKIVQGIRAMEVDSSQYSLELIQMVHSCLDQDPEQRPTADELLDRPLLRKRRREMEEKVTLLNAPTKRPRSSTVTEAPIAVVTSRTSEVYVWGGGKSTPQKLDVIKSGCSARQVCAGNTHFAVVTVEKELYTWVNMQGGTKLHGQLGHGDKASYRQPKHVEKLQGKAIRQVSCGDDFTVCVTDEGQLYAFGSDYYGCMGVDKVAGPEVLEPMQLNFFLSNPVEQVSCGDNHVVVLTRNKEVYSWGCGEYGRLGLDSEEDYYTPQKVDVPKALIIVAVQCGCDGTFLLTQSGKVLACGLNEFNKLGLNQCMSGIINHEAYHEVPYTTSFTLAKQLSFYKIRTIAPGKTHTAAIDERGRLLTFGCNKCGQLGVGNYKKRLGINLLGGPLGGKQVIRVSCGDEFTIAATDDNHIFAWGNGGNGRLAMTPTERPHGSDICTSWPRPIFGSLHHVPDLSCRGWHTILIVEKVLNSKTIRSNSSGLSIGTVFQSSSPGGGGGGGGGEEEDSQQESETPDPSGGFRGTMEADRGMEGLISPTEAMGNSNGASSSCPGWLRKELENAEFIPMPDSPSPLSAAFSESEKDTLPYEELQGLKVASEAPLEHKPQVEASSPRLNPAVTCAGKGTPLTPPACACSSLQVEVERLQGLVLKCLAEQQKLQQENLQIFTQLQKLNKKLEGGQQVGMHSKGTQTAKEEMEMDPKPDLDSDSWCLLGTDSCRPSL

[4] = target: T2, kinases (KINOMEscan panel) (Homo sapiens, UniProt O75385); conditions: NEW KINOMEscan
T2 sequence (O75385 1-1050): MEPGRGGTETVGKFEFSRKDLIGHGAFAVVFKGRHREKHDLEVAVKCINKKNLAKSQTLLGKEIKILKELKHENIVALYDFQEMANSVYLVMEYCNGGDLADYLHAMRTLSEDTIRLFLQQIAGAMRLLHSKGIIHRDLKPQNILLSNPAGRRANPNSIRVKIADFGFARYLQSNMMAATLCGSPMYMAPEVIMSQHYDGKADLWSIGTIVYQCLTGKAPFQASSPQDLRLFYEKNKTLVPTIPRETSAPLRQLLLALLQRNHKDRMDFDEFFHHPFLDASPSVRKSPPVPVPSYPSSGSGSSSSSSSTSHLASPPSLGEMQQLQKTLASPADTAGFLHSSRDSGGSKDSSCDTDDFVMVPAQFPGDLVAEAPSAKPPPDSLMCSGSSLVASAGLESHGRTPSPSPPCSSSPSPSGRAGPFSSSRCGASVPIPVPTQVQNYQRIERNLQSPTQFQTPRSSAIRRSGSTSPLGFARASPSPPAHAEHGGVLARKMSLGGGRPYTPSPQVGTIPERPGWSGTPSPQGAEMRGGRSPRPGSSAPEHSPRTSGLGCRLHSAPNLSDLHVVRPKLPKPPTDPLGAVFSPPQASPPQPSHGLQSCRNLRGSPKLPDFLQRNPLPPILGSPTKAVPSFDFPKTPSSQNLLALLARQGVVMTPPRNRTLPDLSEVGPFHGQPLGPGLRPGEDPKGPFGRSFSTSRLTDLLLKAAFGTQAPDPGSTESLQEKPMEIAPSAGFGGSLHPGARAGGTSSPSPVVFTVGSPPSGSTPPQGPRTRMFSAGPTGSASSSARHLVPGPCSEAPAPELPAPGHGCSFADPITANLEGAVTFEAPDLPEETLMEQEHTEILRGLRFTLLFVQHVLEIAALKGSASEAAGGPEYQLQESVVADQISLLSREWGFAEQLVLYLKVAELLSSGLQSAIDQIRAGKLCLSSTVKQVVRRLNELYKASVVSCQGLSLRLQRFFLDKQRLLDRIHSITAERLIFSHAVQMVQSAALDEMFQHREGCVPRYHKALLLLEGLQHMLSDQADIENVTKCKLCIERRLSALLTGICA

[5] = target: kinases (KINOMEscan panel) (Homo sapiens, UniProt Q96SB4); conditions: kinase SRPK1; NEW KINOMEscan
kinases (KINOMEscan panel) (Homo sapiens, UniProt Q96SB4), sequence (Q96SB4 whole entry): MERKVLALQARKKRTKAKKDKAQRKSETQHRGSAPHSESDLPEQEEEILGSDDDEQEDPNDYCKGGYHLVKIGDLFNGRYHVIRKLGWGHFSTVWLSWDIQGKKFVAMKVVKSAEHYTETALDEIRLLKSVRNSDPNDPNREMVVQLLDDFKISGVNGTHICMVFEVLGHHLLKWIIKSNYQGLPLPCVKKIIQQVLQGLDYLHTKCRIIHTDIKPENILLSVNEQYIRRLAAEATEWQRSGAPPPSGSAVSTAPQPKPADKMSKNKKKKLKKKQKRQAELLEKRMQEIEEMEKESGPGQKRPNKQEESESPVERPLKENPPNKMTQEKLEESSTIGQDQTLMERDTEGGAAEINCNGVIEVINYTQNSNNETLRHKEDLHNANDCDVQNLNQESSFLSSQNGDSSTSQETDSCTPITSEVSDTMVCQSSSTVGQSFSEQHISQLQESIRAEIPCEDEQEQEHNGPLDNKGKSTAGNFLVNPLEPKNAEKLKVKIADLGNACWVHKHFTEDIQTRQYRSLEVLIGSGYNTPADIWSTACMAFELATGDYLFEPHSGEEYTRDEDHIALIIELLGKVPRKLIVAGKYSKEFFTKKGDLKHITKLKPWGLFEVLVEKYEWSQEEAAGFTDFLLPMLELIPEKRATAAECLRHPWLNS

kinases (KINOMEscan panel) (Homo sapiens, UniProt P21127), sequence (P21127 whole entry): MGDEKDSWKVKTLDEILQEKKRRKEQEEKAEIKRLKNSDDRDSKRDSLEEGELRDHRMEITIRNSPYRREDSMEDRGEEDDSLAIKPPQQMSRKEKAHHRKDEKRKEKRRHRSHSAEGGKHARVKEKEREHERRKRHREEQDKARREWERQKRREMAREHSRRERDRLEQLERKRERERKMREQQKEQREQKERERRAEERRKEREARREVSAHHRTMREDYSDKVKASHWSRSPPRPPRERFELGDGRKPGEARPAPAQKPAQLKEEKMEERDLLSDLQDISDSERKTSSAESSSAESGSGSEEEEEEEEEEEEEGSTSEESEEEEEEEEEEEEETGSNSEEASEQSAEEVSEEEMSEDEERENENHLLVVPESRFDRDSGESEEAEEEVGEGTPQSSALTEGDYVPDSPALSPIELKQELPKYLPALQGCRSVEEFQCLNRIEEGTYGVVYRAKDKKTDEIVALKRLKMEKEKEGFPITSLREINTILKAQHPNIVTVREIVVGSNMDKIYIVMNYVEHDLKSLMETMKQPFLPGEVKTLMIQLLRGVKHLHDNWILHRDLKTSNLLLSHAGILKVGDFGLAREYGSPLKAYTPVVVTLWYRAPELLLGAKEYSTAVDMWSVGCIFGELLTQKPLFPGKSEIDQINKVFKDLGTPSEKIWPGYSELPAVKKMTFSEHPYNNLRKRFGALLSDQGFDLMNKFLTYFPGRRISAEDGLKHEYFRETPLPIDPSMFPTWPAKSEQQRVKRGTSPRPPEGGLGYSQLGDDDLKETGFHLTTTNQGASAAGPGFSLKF
kinases (KINOMEscan panel) (Homo sapiens, UniProt P00533, G719S), sequence (P00533 25-1210 G719S): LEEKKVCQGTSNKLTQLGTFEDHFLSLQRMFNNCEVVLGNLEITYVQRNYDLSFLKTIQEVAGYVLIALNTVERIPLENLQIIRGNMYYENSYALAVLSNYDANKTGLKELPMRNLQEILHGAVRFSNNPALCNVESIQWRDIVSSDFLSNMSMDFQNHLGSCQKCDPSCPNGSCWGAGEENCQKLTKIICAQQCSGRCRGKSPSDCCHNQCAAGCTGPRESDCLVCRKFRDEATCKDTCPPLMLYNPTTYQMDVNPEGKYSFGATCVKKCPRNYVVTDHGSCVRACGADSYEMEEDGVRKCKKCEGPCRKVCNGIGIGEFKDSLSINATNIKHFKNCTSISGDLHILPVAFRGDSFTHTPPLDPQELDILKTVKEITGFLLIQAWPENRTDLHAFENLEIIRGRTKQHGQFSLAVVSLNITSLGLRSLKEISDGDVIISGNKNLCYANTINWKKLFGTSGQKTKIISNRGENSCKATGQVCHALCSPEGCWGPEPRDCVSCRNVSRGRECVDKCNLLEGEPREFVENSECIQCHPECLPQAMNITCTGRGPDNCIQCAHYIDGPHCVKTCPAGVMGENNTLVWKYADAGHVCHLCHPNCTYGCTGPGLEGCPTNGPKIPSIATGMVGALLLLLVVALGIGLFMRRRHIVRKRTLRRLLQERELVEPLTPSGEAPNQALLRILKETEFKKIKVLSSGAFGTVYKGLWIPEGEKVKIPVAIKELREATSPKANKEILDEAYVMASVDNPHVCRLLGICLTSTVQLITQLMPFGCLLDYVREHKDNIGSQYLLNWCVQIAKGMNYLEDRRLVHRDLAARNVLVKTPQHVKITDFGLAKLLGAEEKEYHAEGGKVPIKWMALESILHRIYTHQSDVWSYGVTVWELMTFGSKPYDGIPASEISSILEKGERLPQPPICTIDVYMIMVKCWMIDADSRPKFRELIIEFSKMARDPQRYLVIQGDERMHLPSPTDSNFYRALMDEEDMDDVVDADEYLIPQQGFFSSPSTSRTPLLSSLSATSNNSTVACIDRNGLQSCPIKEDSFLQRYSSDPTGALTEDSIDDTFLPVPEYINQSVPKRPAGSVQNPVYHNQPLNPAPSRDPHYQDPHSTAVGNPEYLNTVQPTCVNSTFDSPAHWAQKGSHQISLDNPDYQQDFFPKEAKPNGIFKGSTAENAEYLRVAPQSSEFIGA

Row | SMILES | KINOMEscan CDK11B [1] | KINOMEscan EGFR(G719S) [2] | KINOMEscan NEK9 [3] | KINOMEscan ULK1 [4] | KINOMEscan SRPK1 [5]
1 | Cc1cccc(-c2nc(N(C)c3ccc4ncsc4c3)c3ccccc3n2)n1 [NK-161] | 1 | 0 | 0 | 18 | 7
2 | Cc1cccc(-c2nc(Nc3ccc4nn(C)cc4c3)c3ccccc3n2)n1 [NK167] | 10 | 0 | 0 | 8 | 2
